Test results: the NIST ThermoML archive (doi:10.1021/je200806n)

Assay: xn = mol fraction of the nth substance listed
Conditions: 101.3 kPa, Liquid

O=C1CCCCC1 [cyclohexanone] + CCC(C)O
Conditions	mass density, 298.15 K [kg/m3]	mass density, 303.15 K [kg/m3]	mass density, 308.15 K [kg/m3]	mass density, 313.15 K [kg/m3]	viscosity, 298.15 K [mPa·s]	viscosity, 303.15 K [mPa·s]	viscosity, 308.15 K [mPa·s]	viscosity, 313.15 K [mPa·s]
x1 = 0.0814	814.99	811.03	805.17	800.53	2.511	2.163	1.828	1.441
x1 = 0.1598	826.39	822.21	816.34	811.48	2.067	1.82	1.561	1.186
x1 = 0.2444	838.54	834.13	828.18	823.15	1.737	1.535	1.33	0.982
x1 = 0.3514	853.71	849.09	843.19	838.01	1.472	1.305	1.128	0.841
x1 = 0.4404	866.19	861.39	855.62	850.33	1.361	1.206	1.039	0.794
x1 = 0.5596	882.62	877.71	872.19	866.91	1.332	1.183	1.036	0.825
x1 = 0.6523	895.31	890.36	884.99	879.69	1.4	1.249	1.108	0.914
x1 = 0.738	906.94	901.93	896.81	891.52	1.501	1.354	1.224	1.051
x1 = 0.8494	921.86	916.99	912.09	907.01	1.704	1.558	1.41	1.248
x1 = 0.9361	933.34	928.57	924.04	918.99	1.889	1.716	1.572	1.43
x1 = 1	941.91	937.24	932.67	927.72	2.057	1.847	1.694	1.546

O=C1CCCCC1 [cyclohexanone] + CCCC(C)O
x1 = 1
Conditions	mass density [kg/m3]	viscosity [mPa·s]
298.15 K	941.91	2.057
303.15 K	937.24	1.847
308.15 K	932.67	1.694
313.15 K	927.72	1.546

O=C1CCCCC1 [cyclohexanone] + CCCCC(C)O
x1 = 1
Conditions	mass density [kg/m3]	viscosity [mPa·s]
298.15 K	941.91	2.057
303.15 K	937.24	1.847
308.15 K	932.67	1.694
313.15 K	927.72	1.546

O=C1CCCCC1 [cyclohexanone] + CCCCCC(C)O
x1 = 1
Conditions	mass density [kg/m3]	viscosity [mPa·s]
298.15 K	941.91	2.057
303.15 K	937.24	1.847
308.15 K	932.67	1.694
313.15 K	927.72	1.546
